# Measured values as given in patent US20230413824A1, “AGROCHEMICAL COMPOSITION COMPRISING 3-SUBSTITUTED PHENYLAMIDINE COMPOUNDS AND USE THEREOF” (PI INDUSTRIES LIMITED, priority 2020, published 2023).
# Like-named read-outs stand apart in the source and are kept apart here.
# Key:
# Type in all cases: in vivo
# [1] = system: Pyricularia oryzae; assay: whole plant or invertebrate; conditions: Pyricularia oryzae, read-out: Observed Efficacy
# [2] = system: Alternaria solani; assay: Alternaria solani test in tomato (preventive, glasshouse); conditions: for pest or weed control at 0.05 ppm / pest or weed control at 0.1 ppm / pest or weed control at 1 ppm / pest or weed control at 5 ppm / pest or weed control at 20 ppm: Alternaria solani; for pest or weed control at 1 ppm: Conc. 1 ppm; for pest or weed control at 5 ppm: Conc. 5 ppm; for pest or weed control at 20 ppm: Conc. 20 ppm
# [3] = system: Erysiphe cichoracearum; assay: Erysiphe cichoracearum test in cucumber (preventive, glasshouse); conditions: single compound
# [4] = system: Phakopsora pachyrhizi; assay: Phakopsora pachyrhizi test in soybean (preventive, glasshouse); conditions: single compound; for pest or weed control at 0.05 ppm / pest or weed control at 0.1 ppm / pest or weed control at 0.0001 ppm / pest or weed control at 0.001 ppm / pest or weed control at 0.01 ppm: Phakopsora pachyrhizi, read-out: Observed Efficacy (%)
# [5] = system: Septoria nodorum; assay: Parastagonospora nodorum/Septoria nodorum/Stagnospora nodorum test in wheat (preventive, glasshouse); conditions: Parastagonospora nodorum, single compound, read-out: Observed Efficacy (%)
# Procedure: The single compounds or compound combinations were dissolved in 2% DMSO/Acetone and then mixed with water containing emulsifier to a calibrated spray volume of 50 mL. The spray solutions were poured into spray bottles for further applications.
# To test the preventive activity of compounds, healthy young wheat plants, raised in the greenhouse, were sprayed with the single compound or mixture preparation at the stated application rates inside the spray cabinets using hollow cone nozzles. One day after treatment, the plants were inoculated with a suspension containing 2.8×10^6 Stagnospora nodorum inoculum. The inoculated plants were then kept in a greenhouse chamber at 22-25° C. temperature and 90-100% relative humidity for disease expression.
# A visual assessment of the performance of the compounds and respective compound combinations was carried out by rating the disease severity (0-100% scale) on treated plants 3, 7 and 10 days after application. Efficacy (% control) of the compounds was calculated by comparing the disease rating in the treatment with the one of the untreated control. The compounds were also assessed for their plant compatibility by recording symptoms like necrosis, chlorosis & stunting. The results are shown for the compound of formula (I-1) to (I-5) in Table E1-E5.
# [6] = system: Botrytis cinerea; assay: Botrytis cinerea test in tomato (preventive, glasshouse); conditions: single compound, read-out: Observed Efficacy (%); for pest or weed control at 0.05 ppm: Conc. 0.05 ppm; for pest or weed control at 0.1 ppm: Conc. 0.1 ppm; for pest or weed control at 1 ppm: Conc. 1 ppm; for pest or weed control at 5 ppm: Conc. 5 ppm; for pest or weed control at 20 ppm: Conc. 20 ppm
# [7] = single compound, 0.05 ppm, preventive spray, read-out: Observed Efficacy (%)
# [8] = single compound, 0.1 ppm, preventive spray, read-out: Observed Efficacy (%)
# [9] = Table B4, single compound, Conc. 0.1 ppm, preventive
# [10] = single compound, 0.05 ppm, preventive
# [11] = single compound, 0.1 ppm, preventive
# [12] = Golovinomyces cichoracearum, 0.05 ppm, cucumber, preventive, read-out: Observed Efficacy (%)
# [13] = Golovinomyces cichoracearum, 0.1 ppm, cucumber, preventive, read-out: Observed Efficacy (%)
# [14] = 0.05 ppm, preventive spray on cucumber
# [15] = 0.1 ppm, preventive spray on cucumber
# [16] = Conc. 0.05 ppm, soybean, preventive, Table D4
# [17] = Conc. 0.05 ppm, soybean, preventive, Table D5
# [18] = Conc. 0.1 ppm, soybean, preventive, Table D4
# [19] = Conc. 0.1 ppm, soybean, preventive, Table D5
# [20] = Botrytis cinerea, preventive spray on tomato, % control vs untreated
# [21] = Table B4, single compound, preventive, read-out: Observed Efficacy (%)
# [22] = Golovinomyces cichoracearum, preventive spray on cucumber, read-out: Observed Efficacy (%)
# [23] = Table F4, Botrytis cinerea in tomato, preventive
# [24] = single compound, preventive spray, read-out: Observed Efficacy
# [25] = Golovinomyces cichoracearum, cucumber, preventive, read-out: Observed Efficacy (%)
structure (smiles),measurement,setting,value
"O=C1c2ccccc2C(=O)N1SC(Cl)(Cl)Cl [Folpet, folpet]",pest or weed control at 0.05 ppm,[1],34%
same,pest or weed control at 0.1 ppm,[1],39%
same,pest or weed control at 0.05 ppm,[2]; [7],12%
same,pest or weed control at 0.1 ppm,[2]; [8],16%
same,pest or weed control at 0.05 ppm,"[2]; single compound, Conc. 0.05 ppm, preventive spray, read-out: Observed Efficacy",12%
same,pest or weed control at 0.1 ppm,"[2]; single compound, Conc. 0.1 ppm, preventive spray, read-out: Observed Efficacy",16%
same,Observed Efficacy (%),"[2]; Table B3, single compound, Conc. 0.05 ppm, preventive",12%
same,Observed Efficacy (%),"[2]; Table B3, single compound, Conc. 0.1 ppm, preventive",16%
same,Observed Efficacy (%),[2]; [9],16%
same,Observed Efficacy (%),[2]; [10],12%
same,Observed Efficacy (%),[2]; [11],16%
same,pest or weed control at 0.05 ppm,[3]; [12],24%
same,pest or weed control at 0.1 ppm,[3]; [13],32%
same,Observed Efficacy (%),[3]; [14],24%
same,Observed Efficacy (%),[3]; [15],32%
same,pest or weed control at 0.05 ppm,[4]; preventive spray on soybean,5%
same,pest or weed control at 0.1 ppm,[4]; preventive spray on soybean,12%
same,Observed Efficacy (%),[4]; [16],5%
same,Observed Efficacy (%),[4]; [17],5%
same,Observed Efficacy (%),[4]; [18],12%
same,Observed Efficacy (%),[4]; [19],12%
same,pest or weed control at 0.05 ppm,[5],16%
same,pest or weed control at 0.1 ppm,[5],21%
same,pest or weed control at 0.05 ppm,[6]; [20],24%
same,pest or weed control at 0.1 ppm,[6]; [20],38%
"N#Cc1sc2c(=O)c3ccccc3c(=O)c=2sc1C#N [Dithianon, dithianon]",pest or weed control at 0.05 ppm,[1],34%
same,pest or weed control at 0.1 ppm,[1],42%
same,pest or weed control at 0.05 ppm,[2]; [7],21%
same,pest or weed control at 0.1 ppm,[2]; [8],26%
same,Observed Efficacy (%),"[2]; Table B4, single compound, Conc. 0.05 ppm, preventive",21%
same,Observed Efficacy (%),[2]; [9],26%
same,Observed Efficacy (%),[2]; [10],21%
same,Observed Efficacy (%),[2]; [11],26%
same,pest or weed control at 0.05 ppm,[3]; [12],11%
same,pest or weed control at 0.1 ppm,[3]; [13],18%
same,Observed Efficacy (%),[3]; [14],11%
same,Observed Efficacy (%),[3]; [15],18%
same,pest or weed control at 0.05 ppm,[4]; preventive spray on soybean,15%
same,pest or weed control at 0.1 ppm,[4]; preventive spray on soybean,24%
same,Observed Efficacy (%),[4]; [16],15%
same,Observed Efficacy (%),[4]; [17],15%
same,Observed Efficacy (%),[4]; [18],24%
same,Observed Efficacy (%),[4]; [19],24%
same,pest or weed control at 0.05 ppm,[5],11%
same,pest or weed control at 0.1 ppm,[5],16%
same,pest or weed control at 0.05 ppm,[6]; [20],38%
same,pest or weed control at 0.1 ppm,[6]; [20],45%
"CCN(C)C=Nc1cc(C)cc(Cc2cccc(F)c2)c1C [Compound (I-4), N-ethyl-N′-(3-(3-fluorobenzyl)-2,5-dimethylphenyl)-N-methylformimidamide]",pest or weed control at 1 ppm,[1],17%
same,pest or weed control at 5 ppm,[1],23%
same,pest or weed control at 20 ppm,[1],33%
same,pest or weed control at 1 ppm,[2]; [21],20%
same,pest or weed control at 5 ppm,[2]; [21],27%
same,pest or weed control at 20 ppm,[2]; [21],37%
same,pest or weed control at 1 ppm,[3]; [22],33%
same,pest or weed control at 5 ppm,[3]; [22],63%
same,pest or weed control at 0.0001 ppm,"[4]; Conc. 0.0001 ppm, soybean, preventive, Table D4",43%
same,pest or weed control at 0.001 ppm,"[4]; Conc. 0.001 ppm, soybean, preventive, Table D4",47%
same,pest or weed control at 0.01 ppm,"[4]; Conc. 0.01 ppm, soybean, preventive, Table D4",59%
same,pest or weed control at 1 ppm,[5],20%
same,pest or weed control at 5 ppm,[5],23%
same,pest or weed control at 20 ppm,[5],27%
same,pest or weed control at 1 ppm,[6]; [23],10%
same,pest or weed control at 5 ppm,[6]; [23],17%
same,pest or weed control at 20 ppm,[6]; [23],23%
"CCN(C)C=Nc1cc(Cl)cc(Cc2cccc(C)c2)c1C [Compound (I-1), N′-(5-chloro-2-methyl-3-(3-methylbenzyl)phenyl)-N-ethyl-N-methylformimidamide]",pest or weed control at 1 ppm,[1],17%
same,pest or weed control at 5 ppm,[1],27%
same,pest or weed control at 20 ppm,[1],37%
same,pest or weed control at 1 ppm,[2]; [24],20%
same,pest or weed control at 5 ppm,[2]; [24],27%
same,pest or weed control at 20 ppm,[2]; [24],40%
same,pest or weed control at 1 ppm,[3]; [25],13%
same,pest or weed control at 5 ppm,[3]; [25],33%
same,pest or weed control at 20 ppm,"[3]; Golovinomyces cichoracearum, 20 ppm, cucumber, preventive, read-out: Observed Efficacy (%)",57%
same,pest or weed control at 0.0001 ppm,"[4]; 0.0001 ppm, preventive spray on soybean",40%
same,pest or weed control at 0.001 ppm,"[4]; 0.001 ppm, preventive spray on soybean",50%
same,pest or weed control at 0.01 ppm,"[4]; 0.01 ppm, preventive spray on soybean",62%
same,pest or weed control at 1 ppm,[5],17%
same,pest or weed control at 5 ppm,[5],20%
same,pest or weed control at 20 ppm,[5],43%
same,pest or weed control at 1 ppm,[6]; [20],20%
same,pest or weed control at 5 ppm,[6]; [20],27%
same,pest or weed control at 20 ppm,[6]; [20],47%
